These results are taken from patent US11066401B2, “Pyrimidine compound, chloride salt thereof, and manufacturing and application of same” (SHENZHEN HAIBIN PHARMACEUTICAL CO., LTD, priority 2016, dated 2021).

Where a name gives a salt, the structure may show the parent alone. Read-outs that look alike come from different tables or passages of the source.

Data set [1] is described as follows: Test for hygroscopicity (Chinese Pharmacopeia 2010, Appendix XIX J). In kind it is physicochemical. The procedure: The experiment was carried out according to Guiding Principles of Drug Hygroscopicity Test, Appendix XIX J, Second Part, Chinese Pharmacopeia (2010), the weight increased by hygroscopy of samples (compound shown in Formula (I) and salts thereof prepared in EXAMPLES 1-17) was calculated respectively, the results were shown in Table 4.

A short description of data set [2]: Test for stability: related substances under high temperature and illumination (HPLC). The conditions noted are these: for Related substances Day 10 under high temperature / Related substances Day 10 under illumination condition / Related substances Day 0: acetonitrile-water (1:1) solution; for Related substances Day 10 under high temperature: 60° C., in % (unit assumed); for Related substances Day 10 under high temperature / Related substances Day 10 under illumination condition: 10 days, area normalization; for Related substances Day 10 under illumination condition: 4500 lx±500 lx; for Related substances Day 0: day 0, area normalization. In kind it is physicochemical. The protocol: The experiment was carried out according to Guiding Principles of Active Pharmaceutical Ingredient and Pharmaceutical Formulation Stability Test, Appendix XIX C, Second Part, Chinese Pharmacopeia (2010), the increase of related substance of the solution of compounds shown in formula (I) and salts thereof (EXAMPLES 1-17) under high temperature condition (60° C.) and illumination (the light intensity was 4500 lx±500 lx) was detected to evaluate the stability.
Wherein, the method for detecting related substance was shown as following:
HPLC: Waters 2695 UV Detector
Chromatographic Column: Diamonsil C18 (2) 5 μm, 150×4.6 mm
Detection wavelength: 322 nm
Column temperature: 30° C.
Mobile phase B: buffer (900 ml water+10 ml triethylamine+5 ml phosphoric acid, being diluted to 1000 ml with water)
The testing samples were prepared by using acetonitrile-water (1:1) solution with a concentration of 10-100 μg/ml, kept under high temperature (60° C.) and illumination (the light intensity was 4500 lx±500 lx) respectively for 10 days, the mass of related substance was determined on day 0 and day 10 (calculated by using area normalization), the results were shown in Table 6.

Data set [3] can be described thus: Pharmacokinetic test, absolute bioavailability in rats. In kind it is in vivo. The note with it: male SD rats, i.g. 40 mg/kg vs i.v. 20 mg/kg. The procedure: 48 male SD rats with a body weight of 200-220 g were randomly divided into 8 groups with 6 mice each group, administered the compound shown in Formula (I), the hydrochloride salt, mesylate and acetate thereof intragastrically (i.g.) and intravenously (i.v.) respectively, and the protocol was shown in Table 7:
Intragastric administration: 2% of HPMC
Intravenous administration: a solution prepared with 20% PEG
The rats were fasted for 12 hours with free access to water prior to experiment; and fed together 2 hours after administration.
Blood sampling time points: 5 min (only administering intravenously), 0.25 h, 0.5 h, 1.0 h, 2.0 h, 4.0 h, 6.0 h, 8.0 h and 24 h after administration;
Sample treatment: 0.3 ml venous blood was obtained from rats' posterior ocular vein plexus at the above-mentioned time points, put into a heparinized tube, centrifuged for 5 minutes at 11000 rpm to separate plasma, then frozen in a refrigerator at −20° C.
The concentration of parent drugs in rat's plasma was detected by utilizing LC/MS/MS.
Wherein, F: absolute bioavailability; AUC: area under the curve; D: Dosage

In a further data set the target is PIM1 (Homo sapiens, UniProt P11309). Kind of data set: Assay of PIM kinase activity, PIM1. In kind it is biochemical. The conditions noted are these: 6 concentrations, initial concentration 30 nM; read-out: IC50 PIM 1. The protocol: (§1) Dose-dependent experiments on PIM1, PIM2 and PIM3 were commissioned to Shanghai Runnuo Biotechnology, 6 concentration gradients were set, the initial concentration was 30 nM, 200 nM and 30 nM, then diluted successively, the inhibitive effects of compounds on PIM kinase was tested, the results were shown in Table 9.

For the next data set, the target named is PIM2 (Homo sapiens, UniProt Q9P1W9). Nature of the data set: Assay of PIM kinase activity, PIM2. In kind it is biochemical. The note with it: 6 concentrations, initial concentration 200 nM; read-out: IC50 PIM 2. The procedure:
as §1

The next data set deals with PIM3 (Homo sapiens, UniProt Q86V86). Kind of data set: Assay of PIM kinase activity, PIM3. In kind it is biochemical. The note with it: 6 concentrations, initial concentration 30 nM; read-out: IC50 PIM 3. The protocol: as §1
Data set [4] is described as follows: Test of solubility in water (HPLC).
Protocol: Wherein, the chromatographic condition was shown as follows:
Chromatographic Column: C18
Column temperature: 25° C.
Mobile phase A: 0.1% TFA-water
Mobile phase B: 0.1% TFA-CAN

Chain of PIM1 (P11309 whole entry): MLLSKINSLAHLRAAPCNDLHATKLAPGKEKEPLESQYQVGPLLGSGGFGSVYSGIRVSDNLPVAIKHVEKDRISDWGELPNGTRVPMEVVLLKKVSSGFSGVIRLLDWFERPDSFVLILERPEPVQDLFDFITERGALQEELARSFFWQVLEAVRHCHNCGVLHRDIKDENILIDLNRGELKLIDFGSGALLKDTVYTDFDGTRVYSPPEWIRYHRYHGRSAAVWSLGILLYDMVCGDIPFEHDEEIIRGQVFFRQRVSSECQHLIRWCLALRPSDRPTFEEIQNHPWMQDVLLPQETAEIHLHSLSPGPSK
Chain of PIM2 (Q9P1W9 whole entry): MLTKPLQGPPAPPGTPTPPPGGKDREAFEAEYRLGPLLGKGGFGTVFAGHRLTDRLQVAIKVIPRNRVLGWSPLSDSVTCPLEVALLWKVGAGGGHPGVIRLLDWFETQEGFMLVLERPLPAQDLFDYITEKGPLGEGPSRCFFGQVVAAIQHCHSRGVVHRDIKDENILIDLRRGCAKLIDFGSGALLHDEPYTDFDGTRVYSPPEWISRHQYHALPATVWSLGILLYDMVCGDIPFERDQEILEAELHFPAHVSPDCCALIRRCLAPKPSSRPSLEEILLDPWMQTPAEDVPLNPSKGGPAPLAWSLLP

As usually defined, the melting point is the temperature, or range, at which the solid turns liquid. Take `Nc1sc(-c2c(F)cccc2F)nc1C(=O)Nc1cncnc1OCC1CCNCC1` (as salt: hydrochloride) [EXAMPLE 2]: the melting point lay in the range of 236.1 to 239.4 °C.

The term IC50 denotes the point on the concentration scale where inhibition reaches its midpoint. For the compound `Nc1sc(-c2c(F)cccc2F)nc1C(=O)Nc1cncnc1OCC1CCNCC1` [EXAMPLE 1, 5-amino-2-(2,6-difluorophenyl)-N-(4-(piperidine-4-methoxy)pyrimidine-5-) thiazole-4-formamide], the “Weight increased by hygroscopy” value in data set [1] is 3.35%. Moreover, in data set [2], the “Related substances Day 10 under high temperature” value is listed as 5.02, the Related substances Day 10 under illumination condition amounted to 3.02% and the Related substances Day 0 worked out at 0.45%. Besides, the “Absolute Bioavailability” value in data set [3] came out at 2.2%. Also, the IC50 on PIM1 came to 10 nM. Besides, the IC50 on PIM2 stood at 8.09 nM. At PIM3, the IC50 came out at 23 nM.

In the case of `Nc1sc(-c2c(F)cccc2F)nc1C(=O)Nc1cncnc1OCC1CCNCC1` [EXAMPLE 2], the “Weight increased by hygroscopy” value in data set [1] and in data set [1] (listed as hydrochloride salt) was 0.52% each time. The “Related substances Day 10 under high temperature” value in data set [2] is recorded as 0.68. For the same compound, the Related substances Day 10 under illumination condition in data set [2] is 0.56%. In addition, the Related substances Day 0 in data set [2] was found to be 0.49%. In addition, the “increase of the amount of related substance” value in data set [2] (after 10 days, heat, light) was no more than 0.19%. Further, the “Absolute Bioavailability” value in data set [3] is 32.2%. The IC50 on PIM1 stood at 2.31 nM; on PIM2 it was 1.54 nM; on PIM3 it was 4.36 nM. Also, in data set [4], the solubility in water result is “about 1 mg/mL”.

For the compound `Br.Nc1sc(-c2c(F)cccc2F)nc1C(=O)Nc1cncnc1OCC1CCNCC1` [EXAMPLE 3], the “Weight increased by hygroscopy” value in data set [1] was found to be 4.32%. In data set [2], the “Related substances Day 10 under high temperature” value came to 3.45, the Related substances Day 10 under illumination condition amounted to 1.67% and the Related substances Day 0 is 0.52%.

For `Nc1sc(-c2c(F)cccc2F)nc1C(=O)Nc1cncnc1OCC1CCNCC1.O=C(O)/C=C\C(=O)O` [EXAMPLE 4], in data set [1], the “Weight increased by hygroscopy” value is on record as 5.45%. Besides, in data set [2], the “Related substances Day 10 under high temperature” value amounted to 4.54, the Related substances Day 10 under illumination condition came out at 2.22% and the Related substances Day 0 is 0.46%.

As to `Nc1sc(-c2c(F)cccc2F)nc1C(=O)Nc1cncnc1OCC1CCNCC1.O=C(O)CCC(=O)O` [EXAMPLE 6, Succinate], in data set [1], the “Weight increased by hygroscopy” value is 7.56%. Besides, in data set [2], the “Related substances Day 10 under high temperature” value is listed as 8.82, the Related substances Day 10 under illumination condition was found to be 4.56% and the Related substances Day 0 was 0.55%.

For the compound `Nc1sc(-c2c(F)cccc2F)nc1C(=O)Nc1cncnc1OCC1CCNCC1.O=S(=O)(O)O` [EXAMPLE 7], the “Weight increased by hygroscopy” value in data set [1] amounted to 3.56%. Also, in data set [2], the “Related substances Day 10 under high temperature” value is given as 4.67, the Related substances Day 10 under illumination condition was 2.45% and the Related substances Day 0 was found to be 0.52%.

For the compound `Nc1sc(-c2c(F)cccc2F)nc1C(=O)Nc1cncnc1OCC1CCNCC1.O=C(O)CC(O)(CC(=O)O)C(=O)O` [EXAMPLE 8], the “Weight increased by hygroscopy” value in data set [1] is listed as 5.67%. Further, in data set [2], the “Related substances Day 10 under high temperature” value is 7.34, the Related substances Day 10 under illumination condition turned out to be 5.52% and the Related substances Day 0 worked out at 0.52%.

`Nc1sc(-c2c(F)cccc2F)nc1C(=O)Nc1cncnc1OCC1CCNCC1.O=C(O)c1ccccc1` [EXAMPLE 9]: in data set [1], the “Weight increased by hygroscopy” value is 7.53%. Besides, in data set [2], the “Related substances Day 10 under high temperature” value is listed as 5.56, the Related substances Day 10 under illumination condition was determined as 4.44% and the Related substances Day 0 was 0.56%.

On to `CS(=O)(=O)O.Nc1sc(-c2c(F)cccc2F)nc1C(=O)Nc1cncnc1OCC1CCNCC1` [EXAMPLE 10], for which the “Weight increased by hygroscopy” value in data set [1] stood at 8.21%. Moreover, in data set [2], the “Related substances Day 10 under high temperature” value stood at 35.6, the Related substances Day 10 under illumination condition worked out at 23% and the Related substances Day 0 came to 0.54%. For the same compound, in data set [3], the “Absolute Bioavailability” value is reported as 7.32%.

For the compound `CC(O)C(=O)O.Nc1sc(-c2c(F)cccc2F)nc1C(=O)Nc1cncnc1OCC1CCNCC1` [EXAMPLE 11], the “Weight increased by hygroscopy” value in data set [1] turned out to be 3.67%. In data set [2], the “Related substances Day 10 under high temperature” value was found to be 10.78, the Related substances Day 10 under illumination condition was found to be 5.67% and the Related substances Day 0 turned out to be 0.54%.

For `CC(=O)O.Nc1sc(-c2c(F)cccc2F)nc1C(=O)Nc1cncnc1OCC1CCNCC1` [EXAMPLE 12], the “Weight increased by hygroscopy” value in data set [1] is given as 9.21%. Further, in data set [2], the “Related substances Day 10 under high temperature” value amounted to 3.56, the Related substances Day 10 under illumination condition came to 2.65% and the Related substances Day 0 is 0.62%. Besides, the “Absolute Bioavailability” value in data set [3] is on record as 5.34%.

For the compound `Cc1ccc(S(=O)(=O)O)cc1.Nc1sc(-c2c(F)cccc2F)nc1C(=O)Nc1cncnc1OCC1CCNCC1` [EXAMPLE 13], in data set [1], the “Weight increased by hygroscopy” value amounted to 5.78%. Also, in data set [2], the “Related substances Day 10 under high temperature” value is listed as 8.94, the Related substances Day 10 under illumination condition turned out to be 5.67% and the Related substances Day 0 amounted to 0.65%.

Take `Nc1sc(-c2c(F)cccc2F)nc1C(=O)Nc1cncnc1OCC1CCNCC1.O=C(O)/C=C/C(=O)O` [EXAMPLE 15]: the “Weight increased by hygroscopy” value in data set [1] worked out at 4.77%. In data set [2], the “Related substances Day 10 under high temperature” value turned out to be 9.12, the Related substances Day 10 under illumination condition came out at 6.54% and the Related substances Day 0 is 0.56%.

As for Ascorbate [EXAMPLE 17], the “Weight increased by hygroscopy” value in data set [1] was 5.67%. Also, in data set [2], the “Related substances Day 10 under high temperature” value came out at 18.98, the Related substances Day 10 under illumination condition was found to be 6.66% and the Related substances Day 0 is 0.56%.

Turning to Palmitate [EXAMPLE 14], in data set [1], the “Weight increased by hygroscopy” value worked out at 6.43%. In data set [2], the “Related substances Day 10 under high temperature” value came out at 6.89, the Related substances Day 10 under illumination condition is 3.67% and the Related substances Day 0 stood at 0.66%.

With Tartrate [EXAMPLE 16], in data set [1], the “Weight increased by hygroscopy” value was found to be 7.88%. Also, in data set [2], the “Related substances Day 10 under high temperature” value is listed as 6.89, the Related substances Day 10 under illumination condition amounted to 3.33% and the Related substances Day 0 turned out to be 0.63%.
